Here are results for 3 compounds from patent US9163077B2, “RhoC-based immunotherapy” (RHOVAC APS, priority 2007, dated 2015).

No end group written: not given here.

One experiment concerns the target HLA-A3 (Homo sapiens, UniProt P04439). In words: Assembly assay for peptide binding to MHC class I molecules. The conditions noted are these: HLA-A3, lysate of T2-A3 cells, FIG. 2; read-out: peptide concentration required for half maximal recovery of class I MHC molecules (C50 value). On the procedure: The binding affinity of the synthetic peptides (Genscript, Scotch Plains, US) to HLA-A3 molecules was measured by means of the assembly assay as described (13). The assay is based on the stabilization of the class I molecule after loading of different concentrations of peptide to the TAP-deficient cell line T2-A3. Briefly, T2-A3 cells were incubated in methionine-free RPMI 1640 (Gibco BRL, Paisley, UK) with 10% dialysed FCS. Subsequently, cells were metabolically labelled with 50 μCi ^35S-methionine (Amersham, Birkeroed, Denmark). […] Cell nuclei were removed by ultracentrifugation. The supernatant of T2-A3 cells was heated for 5 min at 45° C. in order to reduce background signals by preferentially destabilizing empty HLA-A3. The samples were precleared by addition of Pansorbin (Calbiochem, Darmstadt, Germany) and left on rotation overnight. Stably folded HLA molecules were immune-precipitated using the HLA class I-specific, conformation-dependent mAb W6/32. A-Sepharose beads were added to collect the folded MHC complexes and separated by isoelectric focusing gel electropheresis. MHC heavy chains were quantified using the ImageGauge Phosphorimager program (FUJI Photo Film). The intensity of the band is directly related to the amount of peptide-bound class I MHC complex recovered during the assay. Subsequently, the extent of stabilization of HLA-A3 is directly related to the binding affinity of the added peptide. The C50-value was calculated for each peptide as the peptide concentration sufficient for half maximal stabilization.

A further experiment has as its system T2-A3 cells. Briefly: 51Cr-release cytotoxicity assay, peptide-pulsed T2-A3 target cells. It counts as cell-based, human. To be noted: for lysis of peptide-pulsed T2-A3 cells by CTL clone 9: FIG. 4b; for lysis of peptide-pulsed T2-A3 cells by Rho1L2-stimulated CTL bulk cultures: bulk culture from MM patient after four restimulations, FIG. 4a, unpulsed cells not lysed. On the procedure:
(§1) PBL from a melanoma (MM) patient were stimulated with irradiated (20 Gy) autologous Rho1L2-loaded DC (PBL:DC ratio=3×10^6:3×10^5). The following day 120 U/ml IL-2 (PeproTech, London, UK) was added. Stimulation of the cultures were carried out every 10 days with Rho1L2-loaded irradiated autologous DC (2×) followed by Rho1L2-loaded irradiated autologous PBL (3×). Hundred and twenty U/ml IL-2 (PeproTech, London, UK) was added after each stimulation. After one month growing cultures were tested for specificity for Rho1L2.
(§2) PBL from a specific culture were cloned by limiting dilution in the presence of cloning mix containing 10^6/ml irradiated (20 Gy) lymphocytes from three healthy donors in X-vivo with 5% heat-inactivated human serum, 25 mM HEPES buffer (GibcoBRL, Paisley, UK), and 120 U/ml IL-2 (PeproTech, London, UK). The plates were incubated at 37° C./5% CO2. Every 3-4 days 50 μl fresh media were added containing IL-2 to a final concentration of 120 U/ml. Growing clones were expanded using cloning mix cells (5×10^4 cells/well) and IL-2. After expansion the clones were tested for specificity and cytotoxic potential in a standard ^51Cr-release assay.
Conventional ^51Cr-release assays for CTL-mediated cytotoxicity were carried out as described elsewhere (Andersen et al., (1999) J Immunol 163:3812-3818). Target cells were T2-A3 cells, the HLA-A3^+ breast cancer cell line BT-20, the HLA-A3^+ colon cancer cell line HT-29, the HLA-A3^+ head and neck cancer cell line CRL-2095 (all available at the American Type Culture Collection (ATCC)), the HLA-A3^+ melanoma cell line FM9, the HLA-A3^− melanoma cell line FM82, and the HLA-A3^+ melanoma cell line FM3 (Kirkin et al., (1995) Cancer Immunol Immunother 41: 71-81), with or without added HLA specific mAb W6/32 (Barnstable et al., (1978) Cell 14: 9-20) (2 μg/100 μl) (Schmidt et al., (2003) Blood 102: 571-576) or the HLA-A3 specific antibody GAPA3 (Sire et al., (1988) 140: 2422-2430).

For experiment [1], the system named is peptide epitope-specific INF-γ releasing effector cells. In words: IFN-γ ELISPOT assay on in vitro stimulated PBL/PBMC. It counts as cell-based, human. To be noted: for specific T-cell responses among PBMC: HLA-A3+ healthy controls (HD); for specific T-cell responses among PBL: HLA-A3+ renal cell carcinoma (RCC) patients. On the procedure: Peripheral blood lymphocytes (PBL) from HLA-A3^+ cancer patients or peripheral blood mononuclear cells (PBMC) from healthy controls were obtained from the University Hospital Herlev, Denmark. Cells were cryopreserved in FCS with 10% DMSO. Tissue typing was conducted at the Department of Clinical Immunology, The State Hospital, Copenhagen, Denmark. Informed consent was obtained from the patients before any of these measures.
To extend the sensitivity of the ELISPOT assay, PBL were stimulated once before analysis. At day 0, PBL were thawed and plated in 24-well plates (Nunc, Roskilde, Denmark) in X-Vivo medium (Cambrex Bio Science Copenhagen, Vallensbaek Strand, Denmark) with 5% heat-inactivated human serum in the presence of 10 μM peptide (GenScript, Scotch Plains, US). The following day 20 U/ml IL-2 (PeproTech, London, UK) was added to the cultures. The cultured cells were tested for reactivity in the ELISPOT on day 8.
The ELISPOT assay was used to quantify peptide epitope-specific INF-γ releasing effector cells as described previously (WO 2005/049073, Example 1.2). Briefly, nitrocellulose bottomed 96-well plates (MultiScreen MAIP N45, Millipore, Hedehusene, Denmark) were coated with anti-IFN-γ antibody (1-D1K, Mabtech, Nacka, Sweden). The wells were washed, blocked with X-vivo medium before adding 10^4 stimulator T2-A3 cells (with or without 10 μM peptide; Rho1L2: RLGLQVRKNK; Rho1: RAGLQVRKNK (GenScript, Scotch Plains, US)) and effector cells at different concentrations. The plates were incubated overnight. The following day, medium was discarded and the wells were washed prior to addition of biotinylated secondary antibody (7-B6-1-Biotin, Mabtech, Nacka, Sweden). The plates were incubated for 2 hrs, washed and Avidin-enzyme conjugate (AP-Avidin, Calbiochem, Life Technologies, Inc., Roskilde, Denmark) was added to each well. Plates were incubated at RT for 1 hr before the enzyme substrate NBT/BCIP (Gibco Life Technology, Taastrup, Denmark) was added to each well and incubated at RT for 5-10 min. The reaction was terminated with tap-water upon the emergency of dark purple spots. The spots were counted using the ImmunoSpot® Series 2.0 Analyzer (CTL Analyzers, LLC, Cleveland, US) and the peptide specific CTL frequency could be calculated from the numbers of spot-forming cells. The number of antigen-specific spots was calculated by subtracting the mean number of spots of the control wells from the mean number of spots in the positive wells; responses with a p-value<0.05 (Student t-test for unpaired samples) were considered as positive. The definition is in respect with the CIMT Monitoring Panel inter-laboratory testing project (www.c-imt.org).

Experiment [2] concerns HLA-A3+ melanoma cell line FM3. Briefly: 51Cr-release cytotoxicity assay, FM3 target cells. It counts as cell-based, human. The conditions noted are these: unlabeled T2-A3 cells pulsed with peptide, inhibitor to target ratio 20:1, FIG. 5b. On the procedure:
as §1, §2
Conventional ^51Cr-release assays for CTL-mediated cytotoxicity were carried out as described elsewhere (Andersen et al., (1999) J Immunol 163:3812-3818). […]

HLA-A3, sequence (P04439 25-365): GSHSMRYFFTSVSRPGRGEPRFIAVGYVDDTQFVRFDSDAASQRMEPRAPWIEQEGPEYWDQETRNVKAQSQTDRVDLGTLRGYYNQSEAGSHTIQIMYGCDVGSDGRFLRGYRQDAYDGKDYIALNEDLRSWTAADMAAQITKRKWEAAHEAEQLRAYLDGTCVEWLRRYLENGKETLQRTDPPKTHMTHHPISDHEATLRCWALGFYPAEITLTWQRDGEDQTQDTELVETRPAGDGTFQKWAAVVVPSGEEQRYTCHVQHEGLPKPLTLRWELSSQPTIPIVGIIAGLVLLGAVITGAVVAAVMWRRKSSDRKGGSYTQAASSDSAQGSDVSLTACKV
HLA-A3, sequence (P61769 21-119 partner): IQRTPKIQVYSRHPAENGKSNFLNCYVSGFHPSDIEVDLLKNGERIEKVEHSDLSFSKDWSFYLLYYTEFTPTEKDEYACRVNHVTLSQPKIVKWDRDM

Regarding `CC[C@H](C)[C@H](N)C(=O)N[C@@H](CC(C)C)C(=O)N[C@@H](CCCNC(=N)N)C(=O)NCC(=O)N[C@@H](CO)C(=O)N[C@H](C(=O)N[C@@H](C)C(=O)N[C@@H](Cc1c[nH]cn1)C(=O)N[C@@H](CCCCN)C(=O)O)C(C)C` [Influenza NP265-273, ILRGSVAHK, reference compound], the EC50 on HLA-A3 stood at 0.3 µM.

Take RLGLQVRKNK [Rho1L2, RLGLQVRKNK]: in the experiment with T2-A3 cells, the “lysis of peptide-pulsed T2-A3 cells by CTL clone 9” value is “effectively lysed” and the “lysis of peptide-pulsed T2-A3 cells by Rho1L2-stimulated CTL bulk cultures” value is “efficiently”. Further, on HLA-A3, the EC50 came to 4 µM. In experiment [1], the “specific T-cell responses among PBMC” value is “No responses were detected” and the “specific T-cell responses among PBL” value is “No responses were detected”. The “patients with specific T-cell responses among PBL” value in experiment [1] (HLA-A3+ melanoma (MM) patients, PBL stimulated once in vitro, FIG. 3) is reported as 3 out of 10. Further, in experiment [2], the “cold target inhibition of clone 9 killing of FM3 cells” value is “completely abrogated”.

Take RAGLQVRKNK [Rho1, RAGLQVRKNK]: in the experiment with T2-A3 cells, the “lysis of peptide-pulsed T2-A3 cells by CTL clone 9” value was “effectively lysed” and the “lysis of peptide-pulsed T2-A3 cells by Rho1L2-stimulated CTL bulk cultures” value was “efficiently”. Also, the EC50 on HLA-A3 was greater than 40 µM. Moreover, in experiment [1], the “specific T-cell responses among PBMC” value is “No responses were detected” and the “specific T-cell responses among PBL” value is “No responses were detected”.
